# In US11592438B2, “Device and method for force phenotyping of cells for high-throughput screening and analysis” (THE REGENTS OF THE UNIVERSITY OF CALIFORNIA, priority 2014, dated 2023):
# No end group written: not given here.
# Tests used:
# [1] = system: primary human airway smooth muscle cells; assay: Pattern contraction / force generation screening of airway smooth muscle cells in 96 well plate; assay type: cell-based; conditions: for contraction of ASM cells (pattern deflection): ASM cells exposed to the compound
# Text: The image processing software 36 identifies all instances of a given molecular pattern 16 in an image stack and determines how many cells (e.g., 0, 1, or 2+) are adhered to each pattern 16 based on images of those cells 11 with stained nuclei. A MATLAB script opens the image files and pairs the stained nuclei images (e.g., DAPI images) with the fluorescent images of the patterns 16 (e.g., FITC images). The image processing software 36 calculates characteristic pixel length(s) of a given pattern 16 for the cases of no cells adhered and one (1) cell adhered. The ‘FITC’ images may be linearly scaled up with, for example, the MATLAB function ‘imresize’ to improve resolution of these measurements. For those patterns with zero cells adhered thereto, the center of each pattern 16 may be determined using binary center-of-mass calculations. For those patterns 16 with one (1) cell adhered thereto, a series of binary dilation and erosion operations, followed by a binary center-of-mass calculation on patterns is performed. The erosion/dilation procedure is used to remove the potential asymmetry in the pattern 16 arising from cell-induced deformations that would otherwise impact the location of the center of mass. Patterns 16 with two or more nuclei are not analyzed. For each processed pattern 16 (those that are crosses or “X” shaped), the diagonal distance in pixels is measured between the calculated center and the bright edge of the pattern 16 in each direction as illustrated in FIG. 10. […] These measurements are stored, converted to microns based on the magnification used (typically 10×). These lengths are normalized to the median of those measured in patterns 16 with no cells (nominally 0 pixel deformations which is used as a control) and a relative distribution plot for patterns with one (1) cell is generated (see FIG. 8). Cropped images of each pattern 16 screened by the image processing software 36 in a given location and the images of the corresponding cell nuclei on those patterns 16 are saved and may be reviewed if an execution error is suspected. FIG. 8 illustrates examples of cropped DAPI and FITC images.
# FIGS. 6A and 6B illustrate another embodiment of the invention. In this embodiment, a substrate 40 such as a plate having apertures 42 formed therein (non-tapered) is adhered to the layer 12 such that individual wells 44 are formed over the surface of the layer 12 with each well 44 containing a plurality of fluorescent patterns 16. […]
# These patterns 16 are then used as the controls. For example, similarly shaped patterns with no cells 11 thereon may have their respective dimensions measured and a baseline established that is representative of no deflection in the pattern 16. […]
# HeLa cells = assay: Dose-response force phenotyping of HeLa cells in well-based embodiment; assay type: cell-based, human; conditions: increased concentration, FIG. 12A
# Text: The image processing software 36 identifies all instances of a given molecular pattern 16 in an image stack and determines how many cells (e.g., 0, 1, or 2+) are adhered to each pattern 16 based on images of those cells 11 with stained nuclei. A MATLAB script opens the image files and pairs the stained nuclei images (e.g., DAPI images) with the fluorescent images of the patterns 16 (e.g., FITC images). The image processing software 36 calculates characteristic pixel length(s) of a given pattern 16 for the cases of no cells adhered and one (1) cell adhered. The ‘FITC’ images may be linearly scaled up with, for example, the MATLAB function ‘imresize’ to improve resolution of these measurements. For those patterns with zero cells adhered thereto, the center of each pattern 16 may be determined using binary center-of-mass calculations. […] Patterns 16 with two or more nuclei are not analyzed. For each processed pattern 16 (those that are crosses or “X” shaped), the diagonal distance in pixels is measured between the calculated center and the bright edge of the pattern 16 in each direction as illustrated in FIG. 10. […] These lengths are normalized to the median of those measured in patterns 16 with no cells (nominally 0 pixel deformations which is used as a control) and a relative distribution plot for patterns with one (1) cell is generated (see FIG. 8). […]
molecule,measurement,setting,value
O=S(=O)(c1cccc2c(I)cccc12)N1CCCNCC1 [ML-7],relaxation of smooth muscle contraction (reduction in deflection amount),"[1]; added after contraction by acetylcholine, enodthelin-1 or histamine, FIG. 11A",shown to relax smooth muscle contraction
CC(C)(C)NCC(O)c1ccc(O)c(CO)c1 (centres unmarked) [albuterol],relaxation of ASM cells,"[1]; added after contraction in response to histamine, FIG. 11B",relaxation
Cc1ccc2c(c1)C(=O)C1(O)CCN(c3ccccc3)C1=N2 (centres unmarked) [blebbistatin],deflection as function of concentration,HeLa cells,less deflection
NCCc1c[nH]cn1 [histamine],contraction of ASM cells (pattern deflection),[1]; FIG. 11A,contraction
"enodthelin-1 (CSCSSLMDKECVYFCHLDIIW; ends and bridges not checked; cysteine pairing not given here; UniProt P05305 53-73, looked up) [contractile stimulus for ASM cells]",contraction of ASM cells (pattern deflection),[1]; FIG. 11A,contraction
